Experiments:
Type in all cases: functional
KB [1] = test: Growth inhibition of human KB cells at 40 uM after 24 hrs by MTT assay relative to control; conditions: read-out: GI
KB [2] = test: Growth inhibition of human KB cells at 4 uM after 24 hrs by MTT assay relative to control; conditions: read-out: GI
KB [3] = test: Growth inhibition of human KB cells at 20 uM after 24 hrs by MTT assay relative to control; conditions: read-out: GI
KB [4] = test: Growth inhibition of human KB cells at 2 uM after 24 hrs by MTT assay relative to control; conditions: read-out: GI
A549 [5] = test: Growth inhibition of human A549 cells at 40 uM after 24 hrs by MTT assay relative to control; conditions: A549, 24 h, read-out: GI
A549 [6] = test: Growth inhibition of human A549 cells at 20 uM after 24 hrs by MTT assay relative to control; conditions: A549, 24 h, read-out: GI
A549 [7] = test: Growth inhibition of human A549 cells at 4 uM after 24 hrs by MTT assay relative to control; conditions: A549, 24 h, read-out: GI
A549 [8] = test: Growth inhibition of human A549 cells at 2 uM after 24 hrs by MTT assay relative to control; conditions: A549, 24 h, read-out: GI

CCOP(=O)(OCC)C1C(C#N)=C(N)Oc2ccccc21 (stereo unspecified) gave an inhibition of growth at 40 µM (KB [1]) of 60.1%, an inhibition of growth at 4 µM (KB [2]) of 15.2% and an inhibition of growth at 20 µM (KB [3]) of 19.4%. It also gave an inhibition of growth at 2 µM (KB [4]) of 0.12%, an inhibition of growth at 40 µM (A549 [5]) of 51% and an inhibition of growth at 20 µM (A549 [6]) of 18.4%. The inhibition of growth at 4 µM (A549 [7]) was 6.25% and the inhibition of growth at 2 µM (A549 [8]) was 4.12%.
In the case of CC(C)OP(=O)(OC(C)C)C1C(C#N)=C(N)Oc2ccccc21 (stereo unspecified), the inhibition of growth at 40 µM (KB [1]) is reported as 9.22%, the inhibition of growth at 4 µM (KB [2]) is reported as 5.21% and the inhibition of growth at 20 µM (KB [3]) is reported as 8.93%. The inhibition of growth at 2 µM (KB [4]) was 2.5%, the inhibition of growth at 40 µM (A549 [5]) was 5.47% and the inhibition of growth at 20 µM (A549 [6]) was 3.5%. It also gave an inhibition of growth at 4 µM (A549 [7]) of 1.2% and an inhibition of growth at 2 µM (A549 [8]) of 0.82%.
For CCCCOP(=O)(OCCCC)C1C(C#N)=C(N)Oc2ccccc21 (stereo unspecified), the inhibition of growth at 40 µM (KB [1]) was 40.4%, the inhibition of growth at 4 µM (KB [2]) was 6.8% and the inhibition of growth at 20 µM (KB [3]) was 17.6%. For the same compound, the inhibition of growth at 2 µM (KB [4]) was 6.45%, the inhibition of growth at 40 µM (A549 [5]) was 30.2% and the inhibition of growth at 20 µM (A549 [6]) was 21.7%. For the same compound, the inhibition of growth at 4 µM (A549 [7]) was 7.82% and the inhibition of growth at 2 µM (A549 [8]) was 3.51%.
In the case of CCOP(=O)(OCC)C1C(C#N)=C(N)Oc2ccc(Br)cc21 (stereo unspecified), the inhibition of growth at 40 µM (KB [1]) is reported as 81.8%, the inhibition of growth at 4 µM (KB [2]) is reported as 10% and the inhibition of growth at 20 µM (KB [3]) is reported as 12%. It also gave an inhibition of growth at 2 µM (KB [4]) of 6.8%, an inhibition of growth at 40 µM (A549 [5]) of 60.8% and an inhibition of growth at 20 µM (A549 [6]) of 20.3%. The inhibition of growth at 4 µM (A549 [7]) was 9.05% and the inhibition of growth at 2 µM (A549 [8]) was 0.52%.
CC(C)OP(=O)(OC(C)C)C1C(C#N)=C(N)Oc2ccc(Br)cc21 (stereo unspecified) was tested, and the inhibition of growth at 40 µM (KB [1]) was 25.4%, the inhibition of growth at 4 µM (KB [2]) was 15% and the inhibition of growth at 20 µM (KB [3]) was 20.3%. For the same compound, the inhibition of growth at 2 µM (KB [4]) was 9.45%, the inhibition of growth at 40 µM (A549 [5]) was 12.5% and the inhibition of growth at 20 µM (A549 [6]) was 10.5%. It also gave an inhibition of growth at 4 µM (A549 [7]) of 1.6% and an inhibition of growth at 2 µM (A549 [8]) of 0.32%.
With CCCCOP(=O)(OCCCC)C1C(C#N)=C(N)Oc2ccc(Br)cc21 (stereo unspecified) the inhibition of growth at 40 µM (KB [1]) was 45.2%, the inhibition of growth at 4 µM (KB [2]) was 10.3% and the inhibition of growth at 20 µM (KB [3]) was 11.5%. It also gave an inhibition of growth at 2 µM (KB [4]) of 9.5%, an inhibition of growth at 40 µM (A549 [5]) of 26.7% and an inhibition of growth at 20 µM (A549 [6]) of 17.5%. For the same compound, the inhibition of growth at 4 µM (A549 [7]) was 8.94% and the inhibition of growth at 2 µM (A549 [8]) was 0.52%.
In the case of CCOP(=O)(OCC)C1C(C#N)=C(N)Oc2ccc([N+](=O)[O-])cc21 (stereo unspecified), the inhibition of growth at 40 µM (KB [1]) is reported as 8.29%, the inhibition of growth at 4 µM (KB [2]) is reported as 6.08% and the inhibition of growth at 20 µM (KB [3]) is reported as 6.18%. It also gave an inhibition of growth at 2 µM (KB [4]) of 4.5%, an inhibition of growth at 40 µM (A549 [5]) of 3.9% and an inhibition of growth at 20 µM (A549 [6]) of 3.1%. For the same compound, the inhibition of growth at 4 µM (A549 [7]) was 2.89% and the inhibition of growth at 2 µM (A549 [8]) was 0.33%.
CC(C)OP(=O)(OC(C)C)C1C(C#N)=C(N)Oc2ccc([N+](=O)[O-])cc21 (stereo unspecified) showed an inhibition of growth at 40 µM (KB [1]) of 23.3%, an inhibition of growth at 4 µM (KB [2]) of 8.5% and an inhibition of growth at 20 µM (KB [3]) of 16.2%. It also gave an inhibition of growth at 2 µM (KB [4]) of 6.07%, an inhibition of growth at 40 µM (A549 [5]) of 26.9% and an inhibition of growth at 20 µM (A549 [6]) of 16.8%. For the same compound, the inhibition of growth at 4 µM (A549 [7]) was 6.25% and the inhibition of growth at 2 µM (A549 [8]) was 2.5%.
For CCCCOP(=O)(OCCCC)C1C(C#N)=C(N)Oc2ccc([N+](=O)[O-])cc21 (stereo unspecified), the inhibition of growth at 40 µM (KB [1]) was 33.8%, the inhibition of growth at 4 µM (KB [2]) was 6% and the inhibition of growth at 20 µM (KB [3]) was 14.5%. For the same compound, the inhibition of growth at 2 µM (KB [4]) was 0.58%, the inhibition of growth at 40 µM (A549 [5]) was 15.8% and the inhibition of growth at 20 µM (A549 [6]) was 7.94%. The inhibition of growth at 4 µM (A549 [7]) was 8.21% and the inhibition of growth at 2 µM (A549 [8]) was 6.3%.
In the case of CCOP(=O)(OCC)C1C(C#N)=C(N)Oc2c1cccc2C(C)(C)C (stereo unspecified), the inhibition of growth at 40 µM (KB [1]) is reported as 27.3%, the inhibition of growth at 4 µM (KB [2]) is reported as 7.4% and the inhibition of growth at 20 µM (KB [3]) is reported as 11.5%. For the same compound, the inhibition of growth at 2 µM (KB [4]) was 5.65%, the inhibition of growth at 40 µM (A549 [5]) was 14.9% and the inhibition of growth at 20 µM (A549 [6]) was 12%. The inhibition of growth at 4 µM (A549 [7]) was 4.34% and the inhibition of growth at 2 µM (A549 [8]) was 3.72%.
Work on CC(C)OP(=O)(OC(C)C)C1C(C#N)=C(N)Oc2c1cccc2C(C)(C)C (stereo unspecified) yielded an inhibition of growth at 40 µM (KB [1]) of 20.6%, an inhibition of growth at 4 µM (KB [2]) of 6.5% and an inhibition of growth at 20 µM (KB [3]) of 12.5%. The inhibition of growth at 2 µM (KB [4]) was 5.5%, the inhibition of growth at 40 µM (A549 [5]) was 14.9% and the inhibition of growth at 20 µM (A549 [6]) was 13.9%. It also gave an inhibition of growth at 4 µM (A549 [7]) of 8.23% and an inhibition of growth at 2 µM (A549 [8]) of 3.1%.
Work on CCCCOP(=O)(OCCCC)C1C(C#N)=C(N)Oc2c1cccc2C(C)(C)C (stereo unspecified) yielded an inhibition of growth at 40 µM (KB [1]) of 19.8%, an inhibition of growth at 4 µM (KB [2]) of 13.9% and an inhibition of growth at 20 µM (KB [3]) of 14.5%. It also gave an inhibition of growth at 2 µM (KB [4]) of 11.2%, an inhibition of growth at 40 µM (A549 [5]) of 13.7% and an inhibition of growth at 20 µM (A549 [6]) of 11.2%. The inhibition of growth at 4 µM (A549 [7]) was 10.5% and the inhibition of growth at 2 µM (A549 [8]) was 9.5%.

Reference: ChEMBL document CHEMBL3124753, “Synthesis of 2-amino-3-cyano-4H-chromen-4-ylphosphonates and their anticancer properties” (2014)
